Experimental data reported in BindingDB's records for patent US20230322822 (Chengdu Di''Ao Jiuhong Pharmaceutical Factory, 2023).

How the values were obtained:
[1] = target: Epidermal growth factor receptor (Homo sapiens, UniProt P00533); assay: EGFR kinase Enzymatic Activity Test 1
Description: (§1) To assess the effect of compounds on the activity of wild-type and mutant EGFR kinases, kinase activity was tested by measuring ATP consumption in an enzymatic reaction using an ADP-Glo (Promega Corporation) kit. Samples to be tested were dissolved in DMSO and diluted in a gradient. In a microplate, an EGFR kinase, a reaction buffer (containing Tris-HCl with a pH of 7.5, MgCl2, DTT and BSA), a kinase substrate Poly(Glu4, Tyr1) and a sample (a total volume of 20 μL per well) were added per well, while a blank control (no enzyme and sample) and a negative control (no sample) were set up; incubated for 15 minutes at 23° C.; added with 5 μL of ATP, and reacted at 23° C. for 60 minutes; added with ADP-Glo Reagent, and continuously reacted for 40 minutes at room temperature to inactivate the redundant ATP; then, added with a Kinase Detection Reagent, and reacted at room temperature for 30 minutes, then the chemiluminescence intensity L of each well was measured. […] IC50 values were calculated according to the above calculation using 4Parameter Logistic Model in XLfit software.

[2] = target: Epidermal growth factor receptor [T790M,L858R] (Homo sapiens, UniProt P00533, L858R/T790M); assay: EGFR kinase Enzymatic Activity Test 1
Description: as §1

Chain of Epidermal growth factor receptor [T790M,L858R] (P00533 25-1210 T790M/L858R limits assumed): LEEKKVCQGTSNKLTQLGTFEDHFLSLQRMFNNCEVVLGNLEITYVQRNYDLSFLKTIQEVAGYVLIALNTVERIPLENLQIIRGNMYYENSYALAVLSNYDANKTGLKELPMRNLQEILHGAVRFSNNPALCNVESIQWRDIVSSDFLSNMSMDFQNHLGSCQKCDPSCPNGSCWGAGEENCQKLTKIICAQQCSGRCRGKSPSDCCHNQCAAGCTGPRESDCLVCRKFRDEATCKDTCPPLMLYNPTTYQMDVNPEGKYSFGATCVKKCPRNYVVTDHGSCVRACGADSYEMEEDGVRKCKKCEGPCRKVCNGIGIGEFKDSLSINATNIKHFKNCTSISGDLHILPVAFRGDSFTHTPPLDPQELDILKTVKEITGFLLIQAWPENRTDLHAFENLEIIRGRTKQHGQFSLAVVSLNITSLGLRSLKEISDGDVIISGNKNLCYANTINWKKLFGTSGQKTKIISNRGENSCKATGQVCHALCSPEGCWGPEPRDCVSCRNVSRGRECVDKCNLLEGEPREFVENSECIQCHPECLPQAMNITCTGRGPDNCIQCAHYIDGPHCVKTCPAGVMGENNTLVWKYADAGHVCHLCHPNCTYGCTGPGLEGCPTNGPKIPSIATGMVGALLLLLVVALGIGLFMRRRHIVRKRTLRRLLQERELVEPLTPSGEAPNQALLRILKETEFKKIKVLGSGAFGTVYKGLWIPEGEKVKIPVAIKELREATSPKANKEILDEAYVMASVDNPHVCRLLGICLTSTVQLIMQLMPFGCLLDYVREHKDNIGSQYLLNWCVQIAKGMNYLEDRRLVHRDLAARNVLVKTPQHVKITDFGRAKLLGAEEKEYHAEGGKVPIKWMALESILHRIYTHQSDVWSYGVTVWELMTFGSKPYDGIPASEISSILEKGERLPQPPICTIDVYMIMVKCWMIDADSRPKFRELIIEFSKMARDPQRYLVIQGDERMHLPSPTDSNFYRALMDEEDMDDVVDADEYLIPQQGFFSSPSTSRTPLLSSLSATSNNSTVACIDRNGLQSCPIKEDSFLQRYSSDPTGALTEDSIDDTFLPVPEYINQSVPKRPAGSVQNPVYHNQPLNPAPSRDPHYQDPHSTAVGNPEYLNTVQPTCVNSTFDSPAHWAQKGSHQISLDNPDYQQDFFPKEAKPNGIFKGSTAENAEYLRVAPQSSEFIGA
Chain of Epidermal growth factor receptor (P00533 whole entry): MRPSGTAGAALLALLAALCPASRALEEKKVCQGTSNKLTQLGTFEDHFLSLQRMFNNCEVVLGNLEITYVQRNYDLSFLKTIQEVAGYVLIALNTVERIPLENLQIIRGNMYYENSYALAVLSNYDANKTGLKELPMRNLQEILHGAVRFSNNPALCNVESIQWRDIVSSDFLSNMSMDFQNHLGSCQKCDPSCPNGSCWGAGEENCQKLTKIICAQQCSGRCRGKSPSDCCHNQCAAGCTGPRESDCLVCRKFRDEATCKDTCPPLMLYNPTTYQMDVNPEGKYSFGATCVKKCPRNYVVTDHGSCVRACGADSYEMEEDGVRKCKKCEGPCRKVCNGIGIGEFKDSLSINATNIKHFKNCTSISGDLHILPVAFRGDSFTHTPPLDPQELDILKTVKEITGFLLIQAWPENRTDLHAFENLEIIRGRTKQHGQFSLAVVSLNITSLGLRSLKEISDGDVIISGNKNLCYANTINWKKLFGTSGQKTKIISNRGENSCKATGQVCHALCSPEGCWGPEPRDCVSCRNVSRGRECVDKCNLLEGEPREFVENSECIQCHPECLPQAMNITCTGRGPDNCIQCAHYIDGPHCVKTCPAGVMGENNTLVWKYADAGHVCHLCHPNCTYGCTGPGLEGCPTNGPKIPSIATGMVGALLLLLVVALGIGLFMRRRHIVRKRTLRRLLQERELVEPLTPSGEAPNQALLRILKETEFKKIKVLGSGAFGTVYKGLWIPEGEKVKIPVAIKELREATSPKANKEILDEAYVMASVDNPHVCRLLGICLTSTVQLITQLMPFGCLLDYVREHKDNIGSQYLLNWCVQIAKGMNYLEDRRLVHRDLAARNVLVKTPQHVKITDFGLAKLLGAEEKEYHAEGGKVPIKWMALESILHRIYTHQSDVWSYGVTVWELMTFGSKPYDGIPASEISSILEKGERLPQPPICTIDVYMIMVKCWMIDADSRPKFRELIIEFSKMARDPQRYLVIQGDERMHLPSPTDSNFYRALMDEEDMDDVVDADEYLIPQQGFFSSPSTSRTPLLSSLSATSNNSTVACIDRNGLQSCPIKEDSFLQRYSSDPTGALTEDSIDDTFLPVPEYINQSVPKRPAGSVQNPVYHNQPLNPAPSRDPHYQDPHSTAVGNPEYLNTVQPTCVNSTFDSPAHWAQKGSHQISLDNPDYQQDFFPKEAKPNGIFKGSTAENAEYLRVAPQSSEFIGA

IC50 [1]: 169 nM | IC50 [2]: 24.8 nM
SMILES: COc1cc(N2CCC(N3CCN(C)CC3)CC2)c(C)cc1Nc1ncc(Br)c(Nc2ccc(C)cc2P(C)(C)=O)n1 [US20230322822, Compound 2]
